Reference: ChEMBL document CHEMBL1201862, “PubChem BioAssay data set” (2004)
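Exposure lasted 48 hours, with cells grown in 96-well plates and compounds tested at five concentrations. At the GI50, growth is halved.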 The source made the active and inactive calls. Rule as the data show it: active = GI50 up to about 1.1 µM and inactive = higher.

Tests used:
Experiment in all cases: NCI tumour cell line growth inhibition, 48 h
[1] = system: Hs-578T
[2] = system: SNB-19
[3] = system: NCI-H226
[4] = system: SF-539
[5] = system: TK-10
[6] = system: SR
[7] = system: SN12C
[8] = system: NCI-H23
[9] = system: SNB-75
[10] = system: NCI/ADR-RES
[11] = system: T47D
[12] = system: LOX IMVI
[13] = system: HT-29
[14] = system: K562
[15] = system: SF-268
[16] = system: CAKI-1
[17] = system: 786-0
[18] = system: SK-MEL-5
[19] = system: KM12
[20] = system: A498
[21] = system: MCF7
[22] = system: SF-295
[23] = system: Malme-3M
[24] = system: HOP-92
[25] = system: A549
[26] = system: OVCAR-8
[27] = system: UACC-257
[28] = system: OVCAR-5
[29] = system: SK-OV-3
[30] = system: MOLT-4
[31] = system: CCRF-CEM
[32] = system: OVCAR-3
[33] = system: IGROV-1
[34] = system: HCT-116
[35] = system: HCT-15
[36] = system: COLO 205
[37] = system: RXF 393
[38] = system: NCI-H460
[39] = system: ACHN
[40] = system: OVCAR-4
[41] = system: HL-60
[42] = system: SK-MEL-2
[43] = system: HCC 2998
[44] = system: PC-3
[45] = system: U-251
[46] = system: EKVX
[47] = system: MDA-MB-435
[48] = system: UACC-62
[49] = system: NCI-H522
[50] = system: MDA-MB-231
[51] = system: SK-MEL-28
[52] = system: DU-145
[53] = system: HOP-62
[54] = system: SW-620
[55] = system: MDA-N
[56] = system: RPMI-8226
[57] = system: M14
[58] = system: UO-31

## COc1cc2c(cc1OC)C1C3CCCCC3CCN1CC2 (configuration not stated)
[1]
  GI50: > 100 µM (inactive)
[2]
  GI50: > 100 µM (inactive)
[3]
  GI50: 88.1 µM (inactive)
[4]
  GI50: > 100 µM (inactive)
[5]
  GI50: > 100 µM (inactive)
[6]
  GI50: > 100 µM (inactive)
[7]
  GI50: 62.7 µM (inactive)
[8]
  GI50: > 100 µM (inactive)
[9]
  GI50: 18.3 µM (inactive)
[10]
  GI50: > 100 µM (inactive)
[11]
  GI50: > 100 µM (inactive)
[12]
  GI50: > 100 µM (inactive)
[13]
  GI50: 88.9 µM (inactive)
[14]
  GI50: > 100 µM (inactive)
[15]
  GI50: > 100 µM (inactive)
[16]
  GI50: > 100 µM (inactive)
[17]
  GI50: 88.5 µM (inactive)
[18]
  GI50: > 100 µM (inactive)
[19]
  GI50: > 100 µM (inactive)
[20]
  GI50: > 100 µM (inactive)
[21]
  GI50: 0.36 µM (active)
[22]
  GI50: 83.8 µM (inactive)
[23]
  GI50: > 100 µM (inactive)
[24]
  GI50: > 100 µM (inactive)
[25]
  GI50: 91.2 µM (inactive)
[26]
  GI50: > 100 µM (inactive)
[27]
  GI50: > 100 µM (inactive)
[28]
  GI50: > 100 µM (inactive)
[29]
  GI50: > 100 µM (inactive)
[30]
  GI50: > 100 µM (inactive)
[31]
  GI50: > 100 µM (inactive)
[32]
  GI50: 79.4 µM (inactive)
[33]
  GI50: > 100 µM (inactive)
[34]
  GI50: 48.6 µM (inactive)
[35]
  GI50: > 100 µM
[36]
  GI50: 67 µM (inactive)
[37]
  GI50: 27 µM (inactive)
[38]
  GI50: > 100 µM (inactive)
[39]
  GI50: > 100 µM (inactive)
[40]
  GI50: > 100 µM (inactive)
[41]
  GI50: > 100 µM (inactive)
[42]
  GI50: > 100 µM (inactive)
[43]
  GI50: > 100 µM (inactive)
[44]
  GI50: > 100 µM (inactive)
[45]
  GI50: > 100 µM (inactive)
[46]
  GI50: > 100 µM (inactive)
[47]
  GI50: > 100 µM (inactive)
[48]
  GI50: > 100 µM (inactive)
[49]
  GI50: > 100 µM (inactive)
[50]
  GI50: > 100 µM (inactive)
[51]
  GI50: > 100 µM (inactive)
[52]
  GI50: > 100 µM (inactive)
[53]
  GI50: > 100 µM (inactive)
[54]
  GI50: > 100 µM (inactive)

## CCOC(=O)c1cnc2oc3ccc(O)cc3c2c1C
[1]
  GI50: 35.2 µM (inactive)
[2]
  GI50: > 100 µM (inactive)
[3]
  GI50: > 100 µM (inactive)
[4]
  GI50: 39.8 µM (inactive)
[5]
  GI50: 57.4 µM (inactive)
[6]
  GI50: 74 µM (inactive)
[7]
  GI50: > 100 µM (inactive)
[8]
  GI50: > 100 µM (inactive)
[55]
  GI50: > 100 µM (inactive)
[10]
  GI50: 41.6 µM (inactive)
[11]
  GI50: 38.5 µM (inactive)
[12]
  GI50: > 100 µM (inactive)
[13]
  GI50: > 100 µM (inactive)
[14]
  GI50: > 100 µM (inactive)
[16]
  GI50: 67 µM (inactive)
[17]
  GI50: > 100 µM (inactive)
[18]
  GI50: 69.3 µM (inactive)
[56]
  GI50: > 100 µM (inactive)
[20]
  GI50: 98.2 µM (inactive)
[21]
  GI50: > 100 µM (inactive)
[22]
  GI50: 78.7 µM (inactive)
[23]
  GI50: 29.9 µM (inactive)
[24]
  GI50: > 100 µM (inactive)
[25]
  GI50: > 100 µM (inactive)
[26]
  GI50: 61.8 µM (inactive)
[27]
  GI50: > 100 µM (inactive)
[28]
  GI50: > 100 µM (inactive)
[29]
  GI50: 53.6 µM (inactive)
[30]
  GI50: 47.4 µM (inactive)
[31]
  GI50: 32.7 µM (inactive)
[32]
  GI50: 33.9 µM (inactive)
[57]
  GI50: > 100 µM (inactive)
[34]
  GI50: > 100 µM (inactive)
[35]
  GI50: > 100 µM
[36]
  GI50: > 100 µM (inactive)
[37]
  GI50: > 100 µM (inactive)
[38]
  GI50: > 100 µM (inactive)
[39]
  GI50: > 100 µM (inactive)
[40]
  GI50: 33.7 µM (inactive)
[41]
  GI50: > 100 µM (inactive)
[42]
  GI50: > 100 µM (inactive)
[43]
  GI50: > 100 µM (inactive)
[44]
  GI50: > 100 µM (inactive)
[45]
  GI50: > 100 µM (inactive)
[46]
  GI50: 35 µM (inactive)
[47]
  GI50: > 100 µM (inactive)
[48]
  GI50: > 100 µM (inactive)
[50]
  GI50: > 100 µM (inactive)
[51]
  GI50: > 100 µM (inactive)
[52]
  GI50: > 100 µM (inactive)
[54]
  GI50: > 100 µM (inactive)

## CC1C(=O)C(C)C(c2ccccc2)N(C)C1c1ccccc1 (configuration not stated)
[6]
  GI50: 32.3 µM (inactive)
[13]
  GI50: 47.6 µM (inactive)
[28]
  GI50: 63.8 µM (inactive)
[30]
  GI50: 34.5 µM (inactive)
[41]
  GI50: 39.8 µM (inactive)

## CC(=O)NC(C)c1ccc(/N=N/N2CCCC2)cc1 (configuration not stated)
[1]
  GI50: > 100 µM (inactive)
[2]
  GI50: > 100 µM (inactive)
[3]
  GI50: > 100 µM (inactive)
[4]
  GI50: > 100 µM (inactive)
[5]
  GI50: > 100 µM (inactive)
[7]
  GI50: > 100 µM (inactive)
[8]
  GI50: > 100 µM (inactive)
[55]
  GI50: > 100 µM (inactive)
[9]
  GI50: > 100 µM (inactive)
[10]
  GI50: > 100 µM (inactive)
[11]
  GI50: > 100 µM (inactive)
[12]
  GI50: > 100 µM (inactive)
[13]
  GI50: > 100 µM (inactive)
[15]
  GI50: > 100 µM (inactive)
[16]
  GI50: > 100 µM (inactive)
[17]
  GI50: > 100 µM (inactive)
[18]
  GI50: > 100 µM (inactive)
[19]
  GI50: > 100 µM (inactive)
[20]
  GI50: > 100 µM (inactive)
[21]
  GI50: > 100 µM (inactive)
[22]
  GI50: > 100 µM (inactive)
[23]
  GI50: > 100 µM (inactive)
[24]
  GI50: > 100 µM (inactive)
[25]
  GI50: > 100 µM (inactive)
[26]
  GI50: > 100 µM (inactive)
[27]
  GI50: > 100 µM (inactive)
[28]
  GI50: > 100 µM (inactive)
[29]
  GI50: > 100 µM (inactive)
[31]
  GI50: > 100 µM (inactive)
[32]
  GI50: > 100 µM (inactive)
[57]
  GI50: > 100 µM (inactive)
[33]
  GI50: > 100 µM (inactive)
[34]
  GI50: > 100 µM (inactive)
[35]
  GI50: > 100 µM
[36]
  GI50: > 100 µM (inactive)
[37]
  GI50: > 100 µM (inactive)
[39]
  GI50: > 100 µM (inactive)
[40]
  GI50: > 100 µM (inactive)
[41]
  GI50: 27.4 µM (inactive)
[42]
  GI50: > 100 µM (inactive)
[43]
  GI50: > 100 µM (inactive)
[44]
  GI50: > 100 µM (inactive)
[45]
  GI50: > 100 µM (inactive)
[46]
  GI50: > 100 µM (inactive)
[47]
  GI50: > 100 µM (inactive)
[49]
  GI50: > 100 µM (inactive)
[50]
  GI50: > 100 µM (inactive)
[58]
  GI50: > 100 µM (inactive)
[51]
  GI50: > 100 µM (inactive)
[52]
  GI50: > 100 µM (inactive)
[53]
  GI50: > 100 µM (inactive)
[54]
  GI50: > 100 µM (inactive)
